Data from patent US20260297136A1, “PEPTIDES WITH LIPOLYTIC, ANTI-LIPOGENIC, ANTIFIBROTIC AND ANTI-INFLAMMATORY ACTIVITY” (FUNDACIÓ HOSPITAL UNIVERSITARI VALL D'HEBRON - INSTITUT DE …, priority 2023, published 2026).

What was measured:
HepG2 cells = assay: Hepatic lipogenesis in HepG2 cells induced by 30 mM fructose (ACC and PPARγ mRNA), Example 3; format: cell-based, human; settings: 5 days
Procedure: FIG. 2. Human hepatoblastoma cell line HepG2 was treated with vehicle (DMSO) in the absence or presence of 30 mM fructose and Telmisartan (5 μg/ml), Semaglutide (10 nM) or GP6 (10 or 40 μg/ml) for 5 days. RNA was extracted and mRNA levels of Acetyl-CoA Carboxylase (ACC) (panel A) and Peroxisome proliferator-activated receptor gamma (PPARγ) (panel B) relative to 18S were measured by RTPCR.
Cell culture reagents were from Life Technologies Inc (Invitrogen SA, Barcelona, Spain). HepG2 hepatoblastoma cells (cat. no. HB-8065; ATCC, LGC Standards SLU, Barcelona, Spain) were maintained in Dulbecco's modified Eagle medium (DMEM) supplemented with 10% fetal bovine serum and antibiotics. HepG2 cells were cultured for 5 day in the absence or presence of 30 mM fructose. Cells cultured in 30 mM fructose were daily treated with vehicle, Telmisartan, Semaglutide or GP6. LX-2 human hepatic stellate cells (SCC064) were maintained in DMEM supplemented with 2% fetal bovine serum and antibiotics. For experiments, LX-2 were cultured for 24 h in DMEM 0.2% FBS and treated for 24 h with vehicle or TGFβ1 (20 ng/ml) in the absence or presence of GP6 (10 or 40 μg/ml). At the end of the experiment's cells were harvested for gene expression analysis.
Total RNA was extracted from HepG2 and LX-2 cells using TRIzol reagent (Invitrogen SA). Reverse transcription was performed at 42° C. for 50 minutes using […] of total RNA, 200 U of Superscript II, and an oligo-dT primer and reagents provided by Invitrogen. […] Results were analyzed using the 7000 Sequence Detection System program (Applied Biosystems, Thermo Fisher Scientific, Barcelona, Spain) (Sex Hormone-Binding Globulin Reduction in Metabolic Disorders May Play a Role in NAFLD Development.Saez-Lopez C, Barbosa-Desongles A, Hernandez C, Dyer R A, Innis S M, Simo R, Selva D M. Endocrinology. 2017 Mar. 1; 158(3):545-559. doi: 10.1210/en.2016-1668).

LX-2 cells = assay: Fibrosis in LX-2 cells: Col1A1 mRNA induced by TGFβ1, Example 7; format: cell-based, human; settings: 24 h
Procedure: FIG. 33. Effect of different peptides and SHBG on fibrosis in LX-2 cells.
LX-2 human hepatic stellate cells (SCC064) were maintained in DMEM supplemented with 2% fetal bovine serum and antibiotics. For experiments, LX-2 were cultured for 24 h in DMEM 0.2% FBS and treated for 24 h with vehicle or TGFβ1 (20 ng/ml) in the absence or presence of EDL6D (10 or 40 μg/ml). At the end of the experiment's cells were harvested for gene expression analysis.
Total RNA was extracted from HepG2 and LX-2 cells using TRIzol reagent (Invitrogen SA). Reverse transcription was performed at 42° C. for 50 minutes using […] of total RNA, 200 U of Superscript II, and an oligo-dT primer and reagents provided by Invitrogen. An aliquot of the reverse transcription product was amplified in a […] reaction using SYBRGreen (Invitrogen SA) with appropriate oligonucleotide primer pairs corresponding to human SHBG, ACC, FAS, ACLY, PPARG, and 18S and mouse ACC, FAS, ACLY, PPARG, Col1A1 and 18S. Results were analyzed using the 7000 Sequence Detection System program (Applied Biosystems, Thermo Fisher Scientific, Barcelona, Spain) (Shez-Lopez et al Endocrinology 2017).

## CC[C@@H](C)[C@@H](NC(=O)[C@H](NC(=O)CNC(=O)[C@@H](CCC(=O)O)NC(=O)[C@H]1CCCN1C(=O)[C@@H](CC(=O)O)NC(=O)[C@@H](Cc1c[nH]c2ccccc12)NC(=O)[C@H](NC(=O)[C@@H](CCCNC(=N)N)NC(=O)[C@H](NC(=O)[C@@H](CCC(=O)O)NC(=O)[C@@H](Cc1ccccc1)NC(=O)[C@@H](CO)NC(=O)[C@@H](CO)NC(=O)[C@@H](CO)NC(=O)[C@H](NC(=O)[C@@H](CCCCN)NC(=O)[C@H](N)[C@H](C)O)[C@H](C)O)C(C)C)[C@H](C)O)C(C)C)C(=O)N[C@H](Cc1ccccc1)C(=O)N[C@H](Cc1ccc(O)cc1)C(=O)O [GP6]
HepG2 cells; GP6 10 or 40 μg/ml versus Telmisartan 5 μg/ml and Semaglutide 10 nM, 30 mM fructose
  effectiveness in reducing the induced expression of ACC and PPARγ versus positive controls: significantly much more effective than Telmisartan and Semaglutide
HepG2 cells; GP6 10 or 40 μg/ml, daily
  ACC mRNA levels induced by 30 mM fructose: reducing mRNA levels
  PPARγ mRNA levels induced by 30 mM fructose: reducing mRNA levels
LX-2 cells
  mRNA levels of collagen 1A1 induced by TGFβ1: reduced the mRNA levels
